Data: patent publication US10399944B2, “Pyridin-2-one derivatives of formula (III) useful as EP3 receptor antagonists” (Janssen Pharmaceutica NV, priority 2017, dated 2019)

What was measured:
EP3 receptor [1] = biological target: T1, EP3 receptor (Homo sapiens, UniProt P43115); experiment: CHO cell cAMP assay (forskolin and sulprostone stimulated, HTRF detection); format: cell-based; details: sulprostone 700 nM (EC80) and FSK 2 μM (EC70); read-out: CHO_cAMP IC50
T1 sequence (P43115 1-390): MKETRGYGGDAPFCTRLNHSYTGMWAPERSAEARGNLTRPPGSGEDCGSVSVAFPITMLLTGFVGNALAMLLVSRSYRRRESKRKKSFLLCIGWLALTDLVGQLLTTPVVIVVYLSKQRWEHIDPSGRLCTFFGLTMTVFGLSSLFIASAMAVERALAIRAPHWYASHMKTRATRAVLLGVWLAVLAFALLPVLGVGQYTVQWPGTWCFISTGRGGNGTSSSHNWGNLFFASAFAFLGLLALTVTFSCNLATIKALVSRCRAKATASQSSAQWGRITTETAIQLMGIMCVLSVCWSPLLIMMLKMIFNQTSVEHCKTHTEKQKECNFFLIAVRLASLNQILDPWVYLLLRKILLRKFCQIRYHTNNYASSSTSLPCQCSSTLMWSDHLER

male Sprague Dawley rats = experiment: IV infused EP3 antagonists on circulating insulin and glucose in the sulprostone infusion IVGTT model; format: in vivo, rat; details: IV bolus plus infusion at 7×Ki and 10×Ki (targeted), with 3 μg/kg/min sulprostone, SD rats
Source text: IV Infused EP3 Antagonists on Circulating Insulin and Glucose in the Sulprostone Infusion IVGTT Model
Jugular vein and carotid artery cannulated male Sprague Dawley rats (˜250 g, available from Charles River) were housed one rat per suspended cage in a temperature-controlled room with 12-hour light/dark cycle. The rats were allowed ad libitum access to water and maintained on a regular diet. Animals were acclimated for minimum 5 days prior to the start of the experiment. Experimental procedures were carried out in accordance with institutional standards for animal care and were approved by the institute's animal care and use committee.
A blood sample for insulin and blood chemistry was collected at 20 min (t=−20) prior to the start of dosing with sulprostone and/or test compound (EP3 antagonist). […]
Blood samples from all animals were collected into Heparin treated tubes. Background was measured via a glucometer at the 0 and 2 min time points to ensure that the animal received the glucose bolus. Plasma insulin was measured via a Meso Scale Discovery metabolic assay (available from Meso Scale). Plasma glucose, free fatty acid (FFA), triglycerides, cholesterol and ketones were measured on an OLYMPUS AU400E chemistry analyzer. Observations on animal health were recorded throughout the procedure. […]

mEP3 = biological target: T2, mEP3 (Mus musculus, UniProt P30557); experiment: mEP3 Ki used for dose targeting in the IVGTT model; format: binding
T2 sequence (P30557 1-365): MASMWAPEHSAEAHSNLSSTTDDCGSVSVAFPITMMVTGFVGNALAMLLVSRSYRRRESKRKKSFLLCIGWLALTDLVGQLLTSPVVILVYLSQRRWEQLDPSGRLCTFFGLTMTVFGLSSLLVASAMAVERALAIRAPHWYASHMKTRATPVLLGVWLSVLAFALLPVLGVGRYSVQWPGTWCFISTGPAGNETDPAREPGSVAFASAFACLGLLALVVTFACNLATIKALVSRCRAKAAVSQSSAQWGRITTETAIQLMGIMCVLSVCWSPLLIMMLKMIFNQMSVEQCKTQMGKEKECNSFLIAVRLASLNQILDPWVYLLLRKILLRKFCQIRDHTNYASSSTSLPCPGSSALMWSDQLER

EP3 receptor [2] = biological target: T1, EP3 receptor; experiment: [3H]-PGE2 binding assay (EP3 competition binding, SPA beads)

| SMILES | IC50 (EP3 receptor [1]) | Ki (mEP3) | Ki (EP3 receptor [2]) | suppression of glucose stimulate insulin secretion (GSIS) by sulprostone (male Sprague Dawley rats) |
| --- | --- | --- | --- | --- |
| CC(C)(C)C(/C=C1/OC(=O)NC1=O)C1C=CC(c2ccc3cccc(F)c3c2)=NC1=O (mixture of isomers) [compound 275, (E)-5-(2-(6-(8-fluoronaphthalen-2-yl)-2-oxo-2,3-dihydropyridin-3-yl)-3,3-dimethylbutylidene)oxazolidine-2,4-dione] | > 20000 nM |  |  |  |
| CC(C)C(/C=C1\OC(=O)NC1=O)c1ccc(-c2ccc3cccc(F)c3c2)[nH]c1=O (racemic) [Compound #62, (Z)-5-(2-(6-(8-fluoronaphthalen-2-yl)-2-oxo-1,2-dihydropyridin-3-yl)-3-methylbutylidene)oxazolidine-2,4-dione] |  | 8.6 nM |  | reverse suppression of glucose stimulate insulin secretion (GSIS) by sulprostone |
| CCn1ncc2c(F)cc(-c3[nH]c(=O)c(C(/C=C4\OC(=O)NC4=O)C(C)C)cc3Cl)cc21 (racemic) [Compound #125, 5-(2-(5-chloro-6-(1-ethyl-4-fluoro-1H-indazol-6-yl)-2-oxo-1,2-dihydropyridin-3-yl)-3-methylbutylidene) oxazolidine-2,4-dione] | 658 nM |  | 487 nM |  |
| CC(C)C(/C=C1\OC(=O)NC1=O)c1ccc(-c2ccc3c(c2)OC(F)(F)O3)[nH]c1=O (racemic) [Compound #276, (Z)-5-(2-(6-(2,2-difluorobenzo[d][1,3]dioxol-5-yl)-2-oxo-2,3-dihydropyridin-3-yl)-3-methylbutylidene)oxazolidine-2,4-dione] | 7600 nM |  | 5650 nM |  |
| CC(C)[C@@H](c1ccc(-c2ccc3cccc(F)c3c2)[nH]c1=O)[C@H]1OC(=O)NC1=O (relative stereo) [Compound #59] | 611 nM |  | 85 nM |  |
| CCn1ncc2c(F)cc(-c3ccc([C@]4(O)CC[C@H]5C[C@@H]4NC5=O)c(=O)[nH]3)cc21 (stereo in doubt) [Compound #300, 4-(6-(1-ethyl-4-fluoro-1H-indazol-6-yl)-2-oxo-1,2-dihydropyridin-3-yl)-4-hydroxy-6-azabicyclo[3.2.1]octan-7-one] |  |  | 5 nM |  |
| CCn1cc2c(F)c(-c3ccc(C(/C=C4/OC(=O)NC4=O)(CC)CC)c(=O)[nH]3)ccc2n1 [Compound #14] | > 20000 nM |  | > 10000 nM |  |
| CCn1cnc2c(F)c(-c3ccc(C(C=C4OC(=O)NC4=O)C(C)C)c(=O)[nH]3)ccc21 (stereo not drawn) [Compound #90, 5-(2-(6-(1-ethyl-4-fluoro-1H-benzo[d]imidazol-5-yl)-2-oxo-1,2-dihydropyridin-3-yl)-3-methylbutyli-dene)oxazolidine-2,4-dione] | 5430 nM |  | 633 nM |  |
| CC(C)C(/C=C1\OC(=O)NC1=O)c1ccc(-c2ccc3cnsc3c2)[nH]c1=O (stereo not drawn) [Compound #93] | 9940 nM |  | 1070 nM |  |
| CCn1ncc2c(F)cc(-c3ccc(C(/C=C4\OC(=O)NC4=O)C4CCCCC4)c(=O)[nH]3)cc21 (stereo not drawn) [Compound #127, 5-(2-cyclohexyl-2-(6-(1-ethyl-4-fluoro-1H-indazol-6-yl)-2-oxo-1,2-dihydropyridin-3-yl)ethylidene) oxazolidine-2,4-dione] | 548 nM |  | 46 nM |  |
| CC(C)C1(c2ccc(-c3ccc4cccc(F)c4c3)[nH]c2=O)C(=O)Nc2nncn21 (stereo not drawn) [Compound #156] | 508 nM |  | 57 nM |  |

Further lines, with some results ahead:

| IC50 (EP3 receptor [1]) | Ki (mEP3) | Ki (EP3 receptor [2]) | SMILES | suppression of glucose stimulate insulin secretion (GSIS) by sulprostone (male Sprague Dawley rats) |
| --- | --- | --- | --- | --- |
| 122 nM |  | 44 nM | CC(C)C(/C=C1\OC(=O)NC1=O)c1ccc(-c2ccc3c(c2)OCCO3)[nH]c1=O (racemic) [Compound #85, (Z)-5-(2-(6-(2,3-dihydrobenzo[b][1,4]dioxin-6-yl)-2-oxo-2,3-dihydropyridin-3-yl)-3-methylbutylidene)oxazolidine-2,4-dione] |  |
| 181 nM |  | 20 nM | CCn1ncc2c(F)cc(-c3ccc(C(/C=C4\OC(=O)NC4=O)C(C)C)c(=O)[nH]3)cc21 (racemic) [Compound #94, 5-(2-(6-(1-ethyl-4-fluoro-1H-indazol-6-yl)-2-oxo-1,2-dihydropyridin-3-yl)-3-methylbutylidene)-oxazolidine-2,4-dione] |  |
| 15 nM |  | 6 nM | CC(C)[C@H](C[C@@H]1OC(=O)NC1=O)c1ccc(-c2ccc3cccc(F)c3c2)[nH]c1=O (relative stereo) [Compound #81] |  |
| 39 nM |  | 17 nM | CC(=C1OC(=O)NC1=O)C(c1ccc(-c2ccc3cccc(F)c3c2)[nH]c1=O)C(C)C (stereo not drawn) [Compound 96] |  |
| 55 nM |  | 28 nM | O=C1NC(=O)/C(=C\C2(c3ccc(-c4ccc5cccc(F)c5c4)[nH]c3=O)CC2)O1 [Compound #11] |  |
| 363 nM |  | 73 nM | CCN1CCOc2cc(-c3ccc(C(/C=C4\OC(=O)NC4=O)C(C)C)c(=O)[nH]3)ccc21 (stereo not drawn) [Compound #121] |  |
| 218 nM |  | 54 nM | CCN1CCOc2ccc(-c3ccc(C(/C=C4\OC(=O)NC4=O)C(C)C)c(=O)[nH]3)cc21 (stereo not drawn) [Compound #137] |  |
| 109 nM |  | 16 nM | O=C1NC(=O)[C@]2(CCC[C@H](c3ccc(-c4ccc5ccccc5c4)[nH]c3=O)C2)O1 [Compound #189, Syn-7-(6-(naphthalen-2-yl)-2-oxo-1,2-dihydropyridin-3-yl)-1-oxa-3-azaspiro[4.5]decane-2,4-dione] |  |
| 92 nM |  | 27 nM | CC(C)C(c1ccc(-c2ccc3cccc(F)c3c2)[nH]c1=O)C1OC(=O)NC1=O (stereo not drawn) [compound 60] |  |
| 27 nM |  | 8 nM | CC(C)C(CC1OC(=O)NC1=O)c1ccc(-c2ccc3cccc(F)c3c2)[nH]c1=O (stereo not drawn) [compound 74] |  |
| 120 nM |  | 15 nM | O=C1NC(=O)C2(CCCC(c3ccc(-c4ccc5ccccc5c4)[nH]c3=O)C2)O1 (stereo not drawn) [compound 188, anti-7-(6-(naphthalen-2-yl)-2-oxo-1,2-dihydropyridin-3-yl)-1-oxa-3-azaspiro[4.5]decane-2,4-dione] |  |
